System: T cells (CD3^+CD56^-)
Experiment: T cell numbers, viability and apoptosis in PBMCs (flow cytometry, DiOC6(3)/PI staining)
Type: cell-based, human
Experimental: To evaluate absolute cell numbers, an equal volume of PKH26 reference microbeads (Sigma-Aldrich) was added to each sample after staining for immune subset identification. Microbeads (5x10^3) were acquired by flow cytometry and absolute numbers of each immune population within the sample were calculated. Normalized percentage values were calculated considering the control (DMSO)-treated cells as 100%.
Cell viability and apoptosis were evaluated by double-staining with the mitochondrial inner transmembrane potential (ΔΨm)-sensitive dye DiOC6(3) (3,3'-dihexyloxacarbocyanine iodide; Sigma-Aldrich) and the exclusion dye propidium iodide (PI; Immunostep), allowing identification of apoptotic [DiOC6(3)^low PI^-] and dead [PI^+] cells as per Proc. Natl. Acad. Sci. U.S.A. (2014) 111(8):3020-3025 and Methods Mol. Biol. (2016) 1419:1-16. Briefly, PBMCs were resuspended in culture medium containing 20 nM DiOC6(3) and incubated for 30 minutes at 37 °C. Then, PI (1 µg/mL) was added and cells were further incubated for 10 minutes at room temperature (RT). Cells were analyzed by flow cytometry considering DiOC6(3)^+PI^- cells as viable. In some experiments, apoptosis was evaluated by staining with Annexin V/PI. Thus, PBMCs were incubated in Annexin V binding buffer containing 5 µg/mL Annexin V-FITC (Biolegend) for 15 minutes at RT and PI (1 µg/mL) was subsequently added. Data were normalized to the untreated control as a percentage. Only samples with at least 60% of viable cells (DiOC6(3)^+; Annexin V^-) in the control (DMSO) condition were employed in this study.
The effect of EC-7072 toward healthy immune subsets, T lymphocytes and natural killer (NK) cells, which are chronically exposed to leukemia cells in the peripheral blood of patients with CLL was assessed by: • (i) incubating PBMCs isolated from patients with CLL (n = 10) following treatment with increasing concentrations of EC-7072 (0 - 400 nM) for 24 hours. Numbers of T cells (CD3^+CD56^-) (Figure 2A) and NK cells (CD3^-CD56^+) (Figure 2B) were evaluated by flow cytometry and normalized to their respective control (DMSO) condition for each individual patient to obtain percentage of relative number of T cells and NK cells, respectively; • (ii) incubating PBMCs isolated from patients with CLL (n = 6 - 10) following treatment with increasing concentrations of EC-7072 (0 - 400 nM) for 24 hours. Viability of immune subsets (leukemia cells, T cells and NK cells) was determined by cytofluorometric assessment of DiOC6(3)/PI staining and normalized to their respective control (DMSO) condition for each individual patient to obtain percentage of viable [DiOC6(3)^+] cells (Figures 2C and 2D); • (iii) incubating PBMCs isolated from patients with CLL (n = 11) following treatment with DMSO or EC-7072 (200 nM) for 24 hours. Numbers of CD4^+ cells (Figure 2E) and CD8^+ T cells (Figure 2F) were evaluated by flow cytometry and normalized to their respective control (DMSO) condition for each individual experiment; • (iv) incubating PBMCs isolated from healthy donors (n = 15) following treatment with EC-7072 (200 nM) for 24 hours. […]

CO[C@@H]([C@@H]1Cc2cc3cc(O[C@H]4C[C@@H](O[C@H]5C[C@@H](O)[C@H](O)[C@@H](C)O5)[C@H](O)[C@@H](C)O4)c(C)c(O)c3c(O)c2C(=O)[C@H]1O[C@H]1C[C@@H](O[C@H]2C[C@@H](O[C@H]3C[C@](C)(O)[C@H](O)[C@@H](C)O3)[C@@H](O)[C@@H](C)O2)[C@H](O)[C@@H](C)O1)[C@@H](O)C(C)=O [EC-7072, mithramycin SK]
T cell numbers and viability (0 - 400 nM, 24 hours, PBMCs from patients with CLL): negligible effects
ratio of apoptosis to cell death in T cells (200 nM, 24 hours, PBMCs from healthy donors (n = 4), Figure 2Q): comparable to that induced by EC-7073
viability of T cells, comparison of mithralogs (200 nM, 24 hours, PBMCs from healthy donors (n = 10), Figure 2N): not exhibit toxicity
cell numbers and viability of T lymphocytes (200 nM, 24 hours, PBMCs from healthy donors (n = 15), compared with PBMCs from patients with CLL): comparable effects
toxicity against T cells compared with fludarabine (EC-7072 200 nM 24 hours vs fludarabine 10 µM 24 hours, PBMCs from patients with CLL (n = 6 - 8), Figure 4F): significantly less toxic than fludarabine
